Assay results: patent US20070275982A1, “METHOD” (ASTRAZENECA AB, priority 2006, published 2007)
Like-named read-outs stand apart in the source and are kept apart here.

Test system: M. tuberculosis
Test: MIC of drugs alone and in combination (synergy test)
Assay type: cell-based, Mycobacterium tuberculosis
Conditions: for MIC: Mycobacterium tuberculosis, drug tested alone, read-out: individual MIC; for change of MIC when tested together: combination Ethambutol + Isoniazid (negative control, FIG. 2)
Experimental: A sulfonylurea ALS inhibitor and a triazolopyrimidine ALS inhibitor were tested alone and in combination with Rifampicin. The positive controls used were Isoniazid and Streptomycin where one finds a synergistic action. The individual MICs of Isoniazid (INH) and Streptomycin (Strep) are 0.03 and 1.0 μg/ml respectively. When used in combination, these values drop to 0.0075 and 0.12 μg/ml respectively (cf. FIG. 1). This is 4 fold and 8 fold less.
The negative control used was a combination of Ethambutol (Etham) and Isoniazid (Inh) where there is no synergistic activity. […] In. Clinical Microbiology Procedures Handbook; Vol. 1-2 by Isenberg, Henry. D. Ed Washington D.C.; American Society for Microbiology/1992; Pages 5.18.1 to 5.18.28).

[1] = combination Isoniazid + Streptomycin
[2] = combination Isoniazid + Streptomycin (positive control, FIG. 1)

SMILES	MIC (Rifampicin/TP experiment (FIG. 4)) [µg/mL]	MIC [µg/mL]	fold drop of MIC in combination vs individual MIC (combination Rifampicin + SU) [fold]	fold drop of MIC in combination vs individual MIC (combination Rifampicin + TP) [fold]	MIC when used in combination (combination Rifampicin + sulphonylurea compound (SU), FIG. 3) [µg/mL]	MIC when used in combination (combination Rifampicin + triazolopyrimidine compound (TP), FIG. 4) [µg/mL]	change of MIC when tested together	fold drop of MIC in combination vs individual MIC [1] [fold]	MIC when used in combination [2] [µg/mL]
CO[C@H]1/C=C/O[C@@]2(C)Oc3c(C)c(O)c4c(O)c(c(/C=N/N5CCN(C)CC5)c(O)c4c3C2=O)NC(=O)/C(C)=C\C=C\[C@H](C)[C@H](O)[C@@H](C)[C@@H](O)[C@@H](C)[C@H](OC(C)=O)[C@@H]1C [Rifampicin]	0.015	0.03	8	4	0.0038	0.0038			
NNC(=O)c1ccncc1 [Isoniazid]		0.03					do not drop significantly	4	0.0075
[H]/N=C(/N)N[C@H]1[C@H](O)[C@@H](O)[C@H](O[C@@H]2O[C@@H](C)[C@](O)(C=O)[C@H]2O[C@@H]2O[C@@H](CO)[C@H](O)[C@@H](O)[C@@H]2NC)[C@@H](N/C(N)=N\[H])[C@@H]1O [Streptomycin]		1						8	0.12
CC[C@@H](CO)NCCN[C@@H](CC)CO [Ethambutol]							do not drop significantly		
